Paper PMC9571063 (Molecules, 2022)
Like-named read-outs stand apart in the source and are kept apart here.

Tests used:
ADCK3 = molecular target: T1, ADCK3 (Homo sapiens, UniProt Q8NI60); test: KINOMEscan; type: binding; conditions: read-out: Percent Control
T1 construct: purchased Eurofins DiscoverX KINOMEscan (scanMAX 468)

CSNK1D = molecular target: T2, CSNK1D (Homo sapiens, UniProt P48730); test: KINOMEscan; type: binding; conditions: read-out: Percent Control
T2 construct: purchased Eurofins DiscoverX KINOMEscan (scanMAX 468)

TNK2 = molecular target: T3, TNK2 (Homo sapiens, UniProt Q07912); test: KINOMEscan; type: binding; conditions: read-out: Percent Control
T3 construct: purchased Eurofins DiscoverX KINOMEscan (scanMAX 468)

VRK2 = molecular target: T4, VRK2 (Homo sapiens, UniProt Q86Y07); test: KINOMEscan; type: binding; conditions: read-out: Percent Control
T4 construct: purchased Eurofins DiscoverX KINOMEscan (scanMAX 468)

TSSK3 = molecular target: T5, TSSK3 (Homo sapiens, UniProt Q96PN8); test: KINOMEscan; type: binding; conditions: read-out: Percent Control
T5 construct: purchased Eurofins DiscoverX KINOMEscan (scanMAX 468)

CDK8 = molecular target: T6, CDK8 (Homo sapiens, UniProt P49336); test: KINOMEscan; type: binding; conditions: read-out: Percent Control
T6 construct: purchased Eurofins DiscoverX KINOMEscan (scanMAX 468)

MAST1 = molecular target: T7, MAST1 (Homo sapiens, UniProt Q9Y2H9); test: KINOMEscan; type: binding; conditions: read-out: Percent Control
T7 construct: purchased Eurofins DiscoverX KINOMEscan (scanMAX 468)

[1] = molecular target: T8, ABL1(T315I)-nonphosphorylated (Homo sapiens, UniProt P00519, T315I); test: KINOMEscan; type: binding; conditions: read-out: Percent Control
T8 construct: purchased Eurofins DiscoverX KINOMEscan (scanMAX 468)

PRKD2 = molecular target: T9, PRKD2 (Homo sapiens, UniProt Q9BZL6); test: KINOMEscan; type: binding; conditions: read-out: Percent Control
T9 construct: purchased Eurofins DiscoverX KINOMEscan (scanMAX 468)

KIT(L576P) = molecular target: T10, KIT(L576P) (Homo sapiens, UniProt P10721, L576P); test: KINOMEscan; type: binding; conditions: read-out: Percent Control
T10 construct: purchased Eurofins DiscoverX KINOMEscan (scanMAX 468)

Hs_PIM1 = molecular target: T11, Hs_PIM1 (Homo sapiens, UniProt P11309); design: method as in ref 13 (a number printed in a supplementary file, which may have a reference list of its own: not looked up in the article's list); conditions: DB18, cited from earlier work
T11 construct: host or cells: Sf9 insect cells (baculovirus)

ERK8 = molecular target: T12, ERK8 (Homo sapiens, UniProt Q8TD08); test: KINOMEscan; type: binding; conditions: read-out: Percent Control
T12 construct: purchased Eurofins DiscoverX KINOMEscan (scanMAX 468)

EPHB6 = molecular target: T13, EPHB6 (Homo sapiens, UniProt O15197); test: KINOMEscan; type: binding; conditions: read-out: Percent Control
T13 construct: purchased Eurofins DiscoverX KINOMEscan (scanMAX 468)

IKK-alpha = molecular target: T14, IKK-alpha (Homo sapiens, UniProt O15111); test: KINOMEscan; type: binding; conditions: read-out: Percent Control
T14 construct: purchased Eurofins DiscoverX KINOMEscan (scanMAX 468)

EGFR(G719S) = molecular target: T15, EGFR(G719S) (Homo sapiens, UniProt P00533, G719S); test: KINOMEscan; type: binding; conditions: read-out: Percent Control
T15 construct: purchased Eurofins DiscoverX KINOMEscan (scanMAX 468)

ANKK1 = molecular target: T16, ANKK1 (Homo sapiens, UniProt Q8NFD2); test: KINOMEscan; type: binding; conditions: read-out: Percent Control
T16 construct: purchased Eurofins DiscoverX KINOMEscan (scanMAX 468)

FLT3(K663Q) = molecular target: T17, FLT3(K663Q) (Homo sapiens, UniProt P36888, K663Q); test: KINOMEscan; type: binding; conditions: read-out: Percent Control
T17 construct: purchased Eurofins DiscoverX KINOMEscan (scanMAX 468)

ALK = molecular target: T18, ALK (Homo sapiens, UniProt Q9UM73); test: KINOMEscan; type: binding; conditions: read-out: Percent Control
T18 construct: purchased Eurofins DiscoverX KINOMEscan (scanMAX 468)

NIM1 = molecular target: T19, NIM1 (Homo sapiens, UniProt Q8IY84); test: KINOMEscan; type: binding; conditions: read-out: Percent Control
T19 construct: purchased Eurofins DiscoverX KINOMEscan (scanMAX 468)

MRCKA = molecular target: T20, MRCKA (Homo sapiens, UniProt Q5VT25); test: KINOMEscan; type: binding; conditions: read-out: Percent Control
T20 construct: purchased Eurofins DiscoverX KINOMEscan (scanMAX 468)

SRC = molecular target: T21, SRC (Homo sapiens, UniProt P12931); test: KINOMEscan; type: binding; conditions: read-out: Percent Control
T21 construct: purchased Eurofins DiscoverX KINOMEscan (scanMAX 468)

Caco2 = test system: Caco2; design: method as in ref 14 (a number printed in a supplementary file, which may have a reference list of its own: not looked up in the article's list); conditions: DB18[a], footnote not given; read-out: Cytotoxic studies IC50 Caco2; cited from earlier work
MKNK1 = molecular target: T22, MKNK1 (Homo sapiens, UniProt Q9BUB5); test: KINOMEscan; type: binding; conditions: read-out: Percent Control
T22 construct: purchased Eurofins DiscoverX KINOMEscan (scanMAX 468)

[2] = molecular target: T23, RSK4(Kin.Dom.1-N-terminal) (Homo sapiens, UniProt Q9UK32); test: KINOMEscan; type: binding; conditions: read-out: Percent Control
T23 construct: RSK4(Kin.Dom.1-N-terminal); purchased Eurofins DiscoverX KINOMEscan (scanMAX 468)

TAOK2 = molecular target: T24, TAOK2 (Homo sapiens, UniProt Q9UL54); test: KINOMEscan; type: binding; conditions: read-out: Percent Control
T24 construct: purchased Eurofins DiscoverX KINOMEscan (scanMAX 468)

WNK3 = molecular target: T25, WNK3 (Homo sapiens, UniProt Q9BYP7); test: KINOMEscan; type: binding; conditions: read-out: Percent Control
T25 construct: purchased Eurofins DiscoverX KINOMEscan (scanMAX 468)

ERBB3 = molecular target: T26, ERBB3 (Homo sapiens, UniProt P21860); test: KINOMEscan; type: binding; conditions: read-out: Percent Control
T26 construct: purchased Eurofins DiscoverX KINOMEscan (scanMAX 468)

ERN1 = molecular target: T27, ERN1 (Homo sapiens, UniProt O75460); test: KINOMEscan; type: binding; conditions: read-out: Percent Control
T27 construct: purchased Eurofins DiscoverX KINOMEscan (scanMAX 468)

PKN2 = molecular target: T28, PKN2 (Homo sapiens, UniProt Q16513); test: KINOMEscan; type: binding; conditions: read-out: Percent Control
T28 construct: purchased Eurofins DiscoverX KINOMEscan (scanMAX 468)

PIP5K1C = molecular target: T29, PIP5K1C (Homo sapiens, UniProt O60331); test: KINOMEscan; type: binding; conditions: read-out: Percent Control
T29 construct: purchased Eurofins DiscoverX KINOMEscan (scanMAX 468)

PIK3CA = molecular target: T30, PIK3CA (Homo sapiens, UniProt P42336); test: KINOMEscan; type: binding; conditions: read-out: Percent Control
T30 construct: purchased Eurofins DiscoverX KINOMEscan (scanMAX 468)

SGK3 = molecular target: T31, SGK3 (Homo sapiens, UniProt Q96BR1); test: KINOMEscan; type: binding; conditions: read-out: Percent Control
T31 construct: purchased Eurofins DiscoverX KINOMEscan (scanMAX 468)

GCN2(Kin.Dom.2,S808G) = molecular target: T32, GCN2(Kin.Dom.2,S808G) (Homo sapiens, UniProt Q9P2K8, S808G); test: KINOMEscan; type: binding; conditions: read-out: Percent Control
T32 construct: GCN2(Kin.Dom.2,S808G); purchased Eurofins DiscoverX KINOMEscan (scanMAX 468)

EPHB2 = molecular target: T33, EPHB2 (Homo sapiens, UniProt P29323); test: KINOMEscan; type: binding; conditions: read-out: Percent Control
T33 construct: purchased Eurofins DiscoverX KINOMEscan (scanMAX 468)

PHKG2 = molecular target: T34, PHKG2 (Homo sapiens, UniProt P15735); test: KINOMEscan; type: binding; conditions: read-out: Percent Control
T34 construct: purchased Eurofins DiscoverX KINOMEscan (scanMAX 468)

BRSK1 = molecular target: T35, BRSK1 (Homo sapiens, UniProt Q8TDC3); test: KINOMEscan; type: binding; conditions: read-out: Percent Control
T35 construct: purchased Eurofins DiscoverX KINOMEscan (scanMAX 468)

CDKL2 = molecular target: T36, CDKL2 (Homo sapiens, UniProt Q92772); test: KINOMEscan; type: binding; conditions: read-out: Percent Control
T36 construct: purchased Eurofins DiscoverX KINOMEscan (scanMAX 468)

MLK3 = molecular target: T37, MLK3 (Homo sapiens, UniProt Q16584); test: KINOMEscan; type: binding; conditions: read-out: Percent Control
T37 construct: purchased Eurofins DiscoverX KINOMEscan (scanMAX 468)

DLK = molecular target: T38, DLK (Homo sapiens, UniProt Q12852); test: KINOMEscan; type: binding; conditions: read-out: Percent Control
T38 construct: purchased Eurofins DiscoverX KINOMEscan (scanMAX 468)

S6K1 = molecular target: T39, S6K1 (Homo sapiens, UniProt P23443); test: KINOMEscan; type: binding; conditions: read-out: Percent Control
T39 construct: purchased Eurofins DiscoverX KINOMEscan (scanMAX 468)

T11 sequence (P11309 whole entry): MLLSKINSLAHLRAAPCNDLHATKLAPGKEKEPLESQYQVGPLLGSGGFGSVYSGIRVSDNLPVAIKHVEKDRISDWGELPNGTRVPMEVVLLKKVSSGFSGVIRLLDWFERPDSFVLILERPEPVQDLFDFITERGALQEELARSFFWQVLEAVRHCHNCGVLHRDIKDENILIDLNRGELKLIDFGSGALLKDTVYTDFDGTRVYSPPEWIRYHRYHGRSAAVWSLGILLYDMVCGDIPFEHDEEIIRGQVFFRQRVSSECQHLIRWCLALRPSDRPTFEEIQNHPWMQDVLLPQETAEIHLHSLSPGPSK
T4 sequence (Q86Y07 whole entry): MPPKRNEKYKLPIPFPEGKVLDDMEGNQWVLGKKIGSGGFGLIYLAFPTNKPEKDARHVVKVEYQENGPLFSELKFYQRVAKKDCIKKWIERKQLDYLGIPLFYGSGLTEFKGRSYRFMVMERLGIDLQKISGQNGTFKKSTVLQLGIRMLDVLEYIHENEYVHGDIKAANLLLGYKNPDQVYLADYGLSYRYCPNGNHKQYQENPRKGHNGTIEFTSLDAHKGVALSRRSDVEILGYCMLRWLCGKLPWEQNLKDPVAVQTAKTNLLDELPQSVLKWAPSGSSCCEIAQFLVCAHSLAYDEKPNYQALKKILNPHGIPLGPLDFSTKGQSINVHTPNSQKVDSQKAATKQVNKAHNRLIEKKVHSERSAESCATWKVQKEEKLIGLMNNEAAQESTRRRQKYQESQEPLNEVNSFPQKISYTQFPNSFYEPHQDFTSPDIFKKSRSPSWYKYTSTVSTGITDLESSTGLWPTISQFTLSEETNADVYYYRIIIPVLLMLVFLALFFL
T7 sequence (Q9Y2H9 whole entry): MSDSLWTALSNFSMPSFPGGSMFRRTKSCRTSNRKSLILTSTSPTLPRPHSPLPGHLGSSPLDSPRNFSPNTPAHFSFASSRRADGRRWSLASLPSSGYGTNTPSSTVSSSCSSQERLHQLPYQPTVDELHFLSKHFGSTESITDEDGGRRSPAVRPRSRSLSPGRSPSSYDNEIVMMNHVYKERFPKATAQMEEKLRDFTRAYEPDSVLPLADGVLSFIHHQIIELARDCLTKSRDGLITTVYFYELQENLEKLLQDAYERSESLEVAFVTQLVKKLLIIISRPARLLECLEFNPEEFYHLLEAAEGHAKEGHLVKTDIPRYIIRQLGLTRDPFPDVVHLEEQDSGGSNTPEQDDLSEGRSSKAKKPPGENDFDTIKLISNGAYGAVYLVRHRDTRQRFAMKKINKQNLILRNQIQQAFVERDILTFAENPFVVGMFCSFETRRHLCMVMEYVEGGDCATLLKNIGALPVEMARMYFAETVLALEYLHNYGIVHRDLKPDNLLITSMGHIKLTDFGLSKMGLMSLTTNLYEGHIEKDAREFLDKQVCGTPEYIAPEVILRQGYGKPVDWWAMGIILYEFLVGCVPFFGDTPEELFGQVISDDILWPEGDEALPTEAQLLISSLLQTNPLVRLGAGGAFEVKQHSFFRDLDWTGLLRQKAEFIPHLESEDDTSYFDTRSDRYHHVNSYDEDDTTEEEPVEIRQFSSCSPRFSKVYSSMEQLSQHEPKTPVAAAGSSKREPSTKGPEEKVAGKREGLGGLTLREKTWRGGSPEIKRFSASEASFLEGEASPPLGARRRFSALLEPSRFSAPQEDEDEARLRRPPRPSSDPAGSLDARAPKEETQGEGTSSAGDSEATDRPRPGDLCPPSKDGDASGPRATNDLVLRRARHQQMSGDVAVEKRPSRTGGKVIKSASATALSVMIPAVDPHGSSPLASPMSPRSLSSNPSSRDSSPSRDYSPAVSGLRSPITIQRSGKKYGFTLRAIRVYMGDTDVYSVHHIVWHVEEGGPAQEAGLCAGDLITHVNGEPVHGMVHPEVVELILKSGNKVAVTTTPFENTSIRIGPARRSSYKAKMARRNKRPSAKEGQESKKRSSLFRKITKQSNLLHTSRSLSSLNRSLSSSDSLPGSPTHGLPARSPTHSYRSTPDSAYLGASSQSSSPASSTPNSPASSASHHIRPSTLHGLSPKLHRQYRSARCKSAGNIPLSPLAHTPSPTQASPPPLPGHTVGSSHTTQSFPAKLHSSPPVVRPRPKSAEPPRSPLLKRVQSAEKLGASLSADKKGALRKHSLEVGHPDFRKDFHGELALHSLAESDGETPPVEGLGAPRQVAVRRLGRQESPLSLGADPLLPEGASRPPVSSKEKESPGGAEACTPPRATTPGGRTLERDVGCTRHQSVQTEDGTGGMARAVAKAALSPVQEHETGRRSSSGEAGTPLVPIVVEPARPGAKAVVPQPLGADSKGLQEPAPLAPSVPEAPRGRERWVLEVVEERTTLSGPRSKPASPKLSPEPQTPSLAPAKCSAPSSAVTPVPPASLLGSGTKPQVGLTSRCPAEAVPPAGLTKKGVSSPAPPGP
T29 sequence (O60331 whole entry): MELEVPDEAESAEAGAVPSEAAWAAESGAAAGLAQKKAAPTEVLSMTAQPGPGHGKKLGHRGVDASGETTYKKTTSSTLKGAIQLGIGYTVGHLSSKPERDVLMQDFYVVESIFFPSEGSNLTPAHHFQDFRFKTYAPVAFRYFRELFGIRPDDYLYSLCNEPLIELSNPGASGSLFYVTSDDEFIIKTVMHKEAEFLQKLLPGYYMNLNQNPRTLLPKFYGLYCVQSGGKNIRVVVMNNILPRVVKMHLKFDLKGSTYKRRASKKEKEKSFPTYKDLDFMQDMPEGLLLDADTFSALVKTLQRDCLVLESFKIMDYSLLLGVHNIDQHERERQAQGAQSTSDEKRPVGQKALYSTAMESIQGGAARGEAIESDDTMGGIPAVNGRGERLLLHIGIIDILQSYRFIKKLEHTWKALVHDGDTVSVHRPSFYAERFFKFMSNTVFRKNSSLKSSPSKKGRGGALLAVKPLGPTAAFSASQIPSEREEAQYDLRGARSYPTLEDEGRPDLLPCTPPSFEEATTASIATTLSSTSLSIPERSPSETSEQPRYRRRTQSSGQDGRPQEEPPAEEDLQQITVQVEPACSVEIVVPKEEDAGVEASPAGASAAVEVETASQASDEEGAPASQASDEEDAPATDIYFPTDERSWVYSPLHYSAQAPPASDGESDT
T1 sequence (Q8NI60 163-647): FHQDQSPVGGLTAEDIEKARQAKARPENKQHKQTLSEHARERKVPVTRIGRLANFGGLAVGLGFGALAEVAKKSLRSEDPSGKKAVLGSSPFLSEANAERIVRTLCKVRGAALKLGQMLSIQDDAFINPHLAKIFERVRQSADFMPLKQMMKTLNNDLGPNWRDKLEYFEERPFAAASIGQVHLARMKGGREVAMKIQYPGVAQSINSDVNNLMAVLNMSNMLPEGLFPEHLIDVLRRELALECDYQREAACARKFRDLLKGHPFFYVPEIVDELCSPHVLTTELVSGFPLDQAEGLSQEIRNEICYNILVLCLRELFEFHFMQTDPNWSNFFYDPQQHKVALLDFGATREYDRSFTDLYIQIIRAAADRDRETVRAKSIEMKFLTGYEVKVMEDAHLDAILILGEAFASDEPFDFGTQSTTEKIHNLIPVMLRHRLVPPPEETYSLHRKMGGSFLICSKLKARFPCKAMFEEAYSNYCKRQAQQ
T34 sequence (P15735 whole entry): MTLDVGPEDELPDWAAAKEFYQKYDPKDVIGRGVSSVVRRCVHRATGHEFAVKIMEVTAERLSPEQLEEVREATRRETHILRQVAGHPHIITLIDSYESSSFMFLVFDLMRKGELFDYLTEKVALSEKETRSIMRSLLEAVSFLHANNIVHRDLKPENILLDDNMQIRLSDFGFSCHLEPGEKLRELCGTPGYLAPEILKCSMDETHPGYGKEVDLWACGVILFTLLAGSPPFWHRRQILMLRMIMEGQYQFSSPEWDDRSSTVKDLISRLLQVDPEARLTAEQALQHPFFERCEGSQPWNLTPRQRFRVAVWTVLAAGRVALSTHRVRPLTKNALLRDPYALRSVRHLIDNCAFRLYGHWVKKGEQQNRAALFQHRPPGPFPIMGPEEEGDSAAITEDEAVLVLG
T22 sequence (Q9BUB5 whole entry): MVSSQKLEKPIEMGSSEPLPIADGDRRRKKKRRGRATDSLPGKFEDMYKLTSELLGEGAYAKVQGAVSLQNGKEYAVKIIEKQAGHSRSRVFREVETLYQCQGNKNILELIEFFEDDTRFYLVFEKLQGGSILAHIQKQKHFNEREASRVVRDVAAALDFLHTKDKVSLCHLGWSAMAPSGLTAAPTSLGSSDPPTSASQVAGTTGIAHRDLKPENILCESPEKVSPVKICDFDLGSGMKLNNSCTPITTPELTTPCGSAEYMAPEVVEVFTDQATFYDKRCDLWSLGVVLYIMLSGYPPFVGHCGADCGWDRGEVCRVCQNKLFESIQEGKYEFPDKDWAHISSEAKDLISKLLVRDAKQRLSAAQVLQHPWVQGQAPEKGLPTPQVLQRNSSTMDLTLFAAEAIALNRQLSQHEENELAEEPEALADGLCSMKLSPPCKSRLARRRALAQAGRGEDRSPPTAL
T32 sequence (Q9P2K8 590-1001 S808G limits assumed): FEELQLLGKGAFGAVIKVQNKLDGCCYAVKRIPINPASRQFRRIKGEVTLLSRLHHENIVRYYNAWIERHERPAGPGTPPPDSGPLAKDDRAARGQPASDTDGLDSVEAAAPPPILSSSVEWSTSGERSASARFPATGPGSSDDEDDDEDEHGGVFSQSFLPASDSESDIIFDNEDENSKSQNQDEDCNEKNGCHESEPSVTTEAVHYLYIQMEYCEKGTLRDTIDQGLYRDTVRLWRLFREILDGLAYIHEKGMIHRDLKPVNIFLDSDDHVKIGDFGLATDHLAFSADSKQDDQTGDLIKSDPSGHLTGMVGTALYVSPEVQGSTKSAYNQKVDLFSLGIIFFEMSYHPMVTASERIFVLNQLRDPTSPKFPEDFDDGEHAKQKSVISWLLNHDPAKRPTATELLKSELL

In the case of `Cc1ccc(-n2cc(COc3cccc4cnc(Nc5cccc(Cl)c5)nc34)nn2)c([N+](=O)[O-])c1` [DB18], the remaining binding at 1 µM (ADCK3) is reported as 100%, the remaining binding at 1 µM (CSNK1D) is reported as 100% and the remaining binding at 1 µM (TNK2) is reported as 100%. The remaining binding at 1 µM (VRK2) was 100%, the remaining binding at 1 µM (TSSK3) was 96% and the remaining binding at 1 µM (CDK8) was 100%. It also gave a remaining binding at 1 µM (MAST1) of 79%, a remaining binding at 1 µM [1] of 89% and a remaining binding at 1 µM (PRKD2) of 100%. For the same compound, the remaining binding at 1 µM (KIT(L576P)) was 100%, the “% of residual activity Hs_PIM1” value (Hs_PIM1; 1 µM) was 97% and the “% of residual activity Hs_PIM1” value (Hs_PIM1; 10 µM) was 81%. The remaining binding at 1 µM (ERK8) was 95%, the remaining binding at 1 µM (EPHB6) was 95% and the remaining binding at 1 µM (IKK-alpha) was 100%. It also gave a remaining binding at 1 µM (EGFR(G719S)) of 100%, a remaining binding at 1 µM (ANKK1) of 100% and a remaining binding at 1 µM (FLT3(K663Q)) of 69%. For the same compound, the remaining binding at 1 µM (ALK) was 100%, the remaining binding at 1 µM (NIM1) was 100% and the remaining binding at 1 µM (MRCKA) was 100%. The remaining binding at 1 µM (SRC) was 100%, the IC50 (Caco2) was 37 µM and the remaining binding at 1 µM (MKNK1) was 100%. It also gave a remaining binding at 1 µM [2] of 96%, a remaining binding at 1 µM (TAOK2) of 98% and a remaining binding at 1 µM (WNK3) of 100%. The remaining binding at 1 µM (ERBB3) was 99%, the remaining binding at 1 µM (ERN1) was 94% and the remaining binding at 1 µM (PKN2) was 100%. For the same compound, the remaining binding at 1 µM (PIP5K1C) was 100%, the remaining binding at 1 µM (PIK3CA) was 95% and the remaining binding at 1 µM (SGK3) was 100%. It also gave a remaining binding at 1 µM (GCN2(Kin.Dom.2,S808G)) of 100%, a remaining binding at 1 µM (EPHB2) of 100% and a remaining binding at 1 µM (PHKG2) of 95%. The remaining binding at 1 µM (BRSK1) was 100%, the remaining binding at 1 µM (CDKL2) was 97% and the remaining binding at 1 µM (MLK3) was 100%. The remaining binding at 1 µM (DLK) was 100% and the remaining binding at 1 µM (S6K1) was 94%.
